Assay results as given in patent US5534535A, “Therapeutic nucleosides” (Burroughs Wellcome Co., priority 1992, dated 1996).
Like-named read-outs stand apart in the source and are kept apart here.

Tested on: HBV
Assay: Anti-HBV assay: HBV DNA in supernatants of HBV-producing cells (HepG2 2.2.15, P5A cell line), immunoaffinity capture, PCR and hybrid-capture detection
Type: cell-based, Hepatitis B virus
Conditions: table headed Anti-HCMV Activity
Method: Anti-HBV activity of compounds of formula (I) and (I-1) was determined with a high-capacity assay for assessing efficacy. Supernatants from growing HBV-producing cells (HepG2 2.2.15, P5A cell line) in 96-well plates are applied to microtiter plate wells which have been coated with a specific monoclonal antibody to HBV surface antigen (HBsAg). Virus particles present in the supernatants bind to the antibody and remain immobilized while other debris is removed by washing. These virus particles are then denatured to release HBV DNA strands which are subsequently amplified by the polymerase chain reaction and detected with a colorimetric hybrid-capture assay. Quantitation is achieved through fitting of a standard curve to dilutions of a cell supernatant with known HBV DNA content. By comparing HBV DNA levels of untreated control cell supernatants with supernatants containing a compound of formula (I) or (I-1), a measure of anti-HBV effectiveness is obtained.
HBV producer cells, 2500 cells/well, were seeded in 96-well culture dishes in RPMI/10% fetal bovine serum/2 mM glutamine (RPMI/10/2:). […] Twenty-five uL HBV standard media dilutions in RPMI/10/2 were added to 2 rows of wells to serve as an internal standard curve for quantitation, and the plates were sealed and incubated at 4° C. overnight. […]
Polymerase chain reaction (Saiki, R. K. et al., Science, 239 (4839) 487-91 (1988)) was carried out on 5 uL samples, using a Perkin Elmer PCR kit. […] Primers were chosen from conserved regions in the HBV genome, as determined by alignment of several sequences. […]
PCR products were detected with horse radish peroxidase-labeled oligonucleotide probes (Synthecell Corp., Rockville, Md. 20850), which hybridize to biotinylated strands of denatured PCR products directly in streptavidin-coated microtiter plate wells, using essentially the method of Holodiniy, M. et al., Bio Techniques, 12 (1)37-39 (1992). […] Quantities of HBV DNA present in the original samples were calculated by comparison with standards. […]

[1] = Hepatitis B virus, HepG2 2.2.15, read-out: Anti-HBV activity, approximate IC50 (50 percent decrease in HBV DNA), HepG2 2.2.15, P5A cell line

Compound | IC50 [1] [nM] | IC50 (read-out: Anti-HBV activity, approximate IC50 (50 percent decrease in HBV DNA), HepG2 2.2.15, P5A cell line) [nM]
OC[C@@H]1C[C@@H](O)[C@H](n2c(Br)nc3cc(Cl)c(Cl)cc32)C1 (relative stereo) [Ex. 13, (±)-(1R*, 2R*, 4S*)-2-(2-Bromo-5,6-dichloro-1H-benzimidazol-1-yl)-4-(hydroxymethyl)cyclo-pentanol] | 5000 | –
OC[C@@H]1C[C@H](n2c(Br)nc3cc(Cl)c(Cl)cc32)[C@@H](O)[C@H]1O [Ex. 69, (1R, 2S, 3S, 5S)-5-(2-Bromo-5,6-dichloro-1H-benzimidazol-1-yl)-3-(hydroxymethyl)-1,2-cyclopentanediol] | 720 | 1300
